Data set [1] is described as follows: Motilin immunoreactivity concentration in plasma, half-life after intravenous administration (Example 8). Particulars: male, SD, rat, in vivo, iv, 10 nmol/kg. As for the experimental part: The experiment was carried out using rats into which polyethylene tube (PE-50 manufactured by Clay Adams) was inserted into thigh artery under an anesthetized condition with Nembutal. As to a test system, male SD strain rats (Nippon Charles River) of 7 weeks age were used where one group comprised 3 rats. Human motilin or a derivative thereof in a dose of 10 nmol/kg was administered into tail vein of the rat and the blood before the administration and until 60 minutes after the administration was periodically collected by a polyethylene tube inserted into the thigh artery. To the collected blood were added EDTA (manufactured by Dojin Laboratories) and aprotinin (manufactured by Bayer) as a stabilizer and an anti-coagulant, respectively and the plasma was separated therefrom by centrifugal separation. Motilin immunoreactivity concentration in plasma was measured by a competitive radioimmunoassay (RIA) (FIG. 8). At that time, a rabbit polyclonal antibody (#870623) which specifically recognizes the amino acid numbers 1 to 12 of native motilin shown by SEQ ID No: 102 was used as an antibody and, as a labeled compound, ^125I-[Tyr^7] human motilin was used.

A short description of data set [2]: in vivo. Particulars: rat; for AUC(0-inf) / C0 / half-life / Cmax / Tmax: male, SD, 0.1 mg/kg. As for the experimental part:
Changes in ANP immunoreactivity concentration in plasma when a native ANP and a chimeric peptide (chimeric ANP) to which a half-life-extension peptide was bestowed were administered into vein of rats were investigated.
As a test system, male rats of an SD strain of 7 weeks age (provided from Nippon Charles River) were subjected to the experiment where one group comprised three rats. […] At that time, a rabbit polyclonal antibody (#8) recognizing a ring part of ANP was used as an antibody and ^125I-[Tyr^28] α-hANP was used as a labeling compound.
Pharmacokinetic parameters were calculated from the resulting changes in immunoreactivity concentrations in plasma. At that time, WinNonlin Professional Ver. 4.0.1 (manufactured by Pharsight Corporation, U.S.A.) was used as the analytical software. Method for the calculation of each parameter is mentioned as follows.
Concentration at time 0 (C0; extrapolated value, ng/mL), area under the curve for concentration in plasma vs. time (AUC; ng.min/mL) and quenching half-life (T½; minute(s)) were calculated as follows. C0 was calculated as a value at time by means of extrapolation from the changes in immunoreactivity concentration in plasma at each blood collection period. AUC was calculated by a trapezoidal method using the immunoreactivity concentrations in plasma at all measuring points (t) and an extrapolated value until the infinitive time was determined. T½ was calculated by means of a least-squares method from the inclination of a straight line connecting several points in a disappearing phase of the immunoreactivity concentration in plasma. In the case of a subcutaneous administration, C0 was not determined but the maximum concentration in plasma (Cmax; ng/mL) and the time reaching the maximum concentration in plasma (Tmax; min) were determined.

The structures appear in SMILES notation. Where a SMILES comes first, the peptide text is derived from it. Bridges are numbered along the chain shown (N, C = ends).

A word on the half-life: it is the time in which the quantity being followed falls by half. Low readings indicate fast loss, high ones slow loss. As for `CC[C@H](C)[C@H](NC(=O)[C@@H]1CCCN1C(=O)[C@@H](NC(=O)[C@@H](N)Cc1ccccc1)C(C)C)C(=O)N[C@@H](Cc1ccccc1)C(=O)N[C@H](C(=O)N[C@@H](Cc1ccc(O)cc1)C(=O)NCC(=O)N[C@@H](CCC(=O)O)C(=O)N[C@@H](CC(C)C)C(=O)N[C@@H](CCC(N)=O)C(=O)N[C@@H](CCCNC(=N)N)C(=O)N[C@H](C(=O)N[C@@H](CCC(N)=O)C(=O)N[C@@H](CCC(N)=O)C(=O)N[C@@H](CCCNC(=N)N)C(=O)N[C@@H](CCCCN)C(=O)N[C@@H](CCC(=O)O)C(=O)N[C@@H](C)C(=O)N[C@@H](CCCCN)C(=O)N[C@@H](CCCCN)C(=O)N1CCC[C@H]1C(=O)N1CCC[C@H]1C(=O)N[C@@H](C)C(=O)N[C@@H](CCCCN)C(=O)N[C@@H](CC(C)C)C(=O)N[C@@H](CCC(N)=O)C(=O)N1CCC[C@H]1C(=O)N[C@@H](CCCNC(=N)N)C(=O)O)C(C)C)[C@@H](C)O` [Chimeric motilin (S)(MG-18S/A)] (H-FVPIFTYGELQRVQQRKEAKKPPAKLQPR-OH; N-terminus and C-terminus assumed), the half-life in data set [1] was determined as 9.29 min.
The molecule `CC[C@H](C)[C@H](NC(=O)[C@@H]1CCCN1C(=O)[C@@H](NC(=O)[C@@H](N)Cc1ccccc1)C(C)C)C(=O)N[C@@H](Cc1ccccc1)C(=O)N[C@H](C(=O)N[C@@H](Cc1ccc(O)cc1)C(=O)NCC(=O)N[C@@H](CCC(=O)O)C(=O)N[C@@H](CC(C)C)C(=O)N[C@@H](CCC(N)=O)C(=O)N[C@@H](CCCNC(=N)N)C(=O)N[C@H](C(=O)N[C@@H](CCC(N)=O)C(=O)N[C@@H](CCC(N)=O)C(=O)N[C@@H](CCCNC(=N)N)C(=O)N[C@@H](CCCCN)C(=O)N[C@@H](CCC(=O)O)C(=O)N[C@@H](CO)C(=O)NCC(=O)N[C@@H](CCCCN)C(=O)N[C@@H](CCCCN)C(=O)N1CCC[C@H]1C(=O)N1CCC[C@H]1C(=O)N[C@@H](C)C(=O)N[C@@H](CCCCN)C(=O)N[C@@H](CC(C)C)C(=O)N[C@@H](CCC(N)=O)C(=O)N1CCC[C@H]1C(=O)N[C@@H](CCCNC(=N)N)C(=O)O)C(C)C)[C@@H](C)O` [Chimeric motilin (I)(MG-i19G)] (H-FVPIFTYGELQRVQQRKESGKKPPAKLQPR-OH; N-terminus and C-terminus assumed) came in with a half-life in data set [1] of 11.6 min.
For orientation: AUC(0-inf) means the area under the concentration-time curve extrapolated to infinity. By Cmax is commonly meant the peak of the concentration-time curve. The Tmax is the time at which the peak concentration occurs. For the molecule `CC[C@H](C)[C@@H]1NC(=O)[C@H](CCCNC(=N)N)NC(=O)[C@H](CC(=O)O)NC(=O)[C@H](CCSC)NC(=O)[C@H](CCCNC(=N)N)NC(=O)CNC(=O)CNC(=O)[C@H](Cc2ccccc2)NC(=O)[C@@H](N)CSSC[C@@H](C(=O)N[C@@H](CC(N)=O)C(=O)N[C@@H](CO)C(=O)N[C@@H](Cc2ccccc2)C(=O)N[C@@H](CCCNC(=N)N)C(=O)N[C@@H](Cc2ccc(O)cc2)C(=O)N[C@H](C(=O)N[C@@H](CCC(N)=O)C(=O)N[C@@H](CCC(N)=O)C(=O)N[C@@H](CCCNC(=N)N)C(=O)N[C@@H](CCCCN)C(=O)N[C@@H](CCC(=O)O)C(=O)N[C@@H](CO)C(=O)N[C@@H](CCCCN)C(=O)N[C@@H](CCCCN)C(=O)N2CCC[C@H]2C(=O)N2CCC[C@H]2C(=O)N[C@@H](C)C(=O)N[C@@H](CCCCN)C(=O)N[C@@H](CC(C)C)C(=O)N[C@@H](CCC(N)=O)C(=O)N2CCC[C@H]2C(=O)N[C@@H](CCCNC(=N)N)C(=O)O)C(C)C)NC(=O)CNC(=O)[C@H](CC(C)C)NC(=O)CNC(=O)[C@H](CO)NC(=O)[C@H](CCC(N)=O)NC(=O)[C@H](C)NC(=O)CNC1=O` [Chimeric ANP (A)] (H-CFGGRMDRIGAQSGLGCNSFRYVQQRKESKKPPAKLQPR-OH; disulfide 1-17; N-terminus and C-terminus assumed), in data set [2] (iv), the AUC(0-inf) was 196 ng·h/mL, the C0 came out at 1240 ± 71 ng/mL, the half-life stood at 24 ± 2.5 min and the “concentration in plasma as compared with the native ANP” value was “rising concentration in plasma”. For the same molecule, in data set [2] (sc), the AUC(0-inf) was 34 ng·h/mL, the peak level (Cmax) was 63.3 ± 31.8 ng/mL, the Tmax is 5 min and the half-life was 46.4 ± 8 min. The “concentration in plasma as compared with the native ANP” value in data set [2] (sc) is given as “rising concentration in plasma”.
Consider `CC[C@H](C)[C@@H]1NC(=O)[C@H](CCCNC(=N)N)NC(=O)[C@H](CC(=O)O)NC(=O)[C@H](CCSC)NC(=O)[C@H](CCCNC(=N)N)NC(=O)CNC(=O)CNC(=O)[C@H](Cc2ccccc2)NC(=O)[C@@H](NC(=O)[C@@H](NC(=O)[C@H](CCC(N)=O)NC(=O)[C@H](CCC(N)=O)NC(=O)[C@H](CCCNC(=N)N)NC(=O)[C@H](CCCCN)NC(=O)[C@H](CCC(=O)O)NC(=O)[C@H](CO)NC(=O)[C@H](CCCCN)NC(=O)[C@H](CCCCN)NC(=O)[C@@H]2CCCN2C(=O)[C@@H]2CCCN2C(=O)[C@H](C)NC(=O)[C@H](CCCCN)NC(=O)[C@H](CC(C)C)NC(=O)[C@H](CCC(N)=O)NC(=O)[C@@H]2CCCN2C(=O)[C@@H](N)CCCNC(=N)N)C(C)C)CSSC[C@@H](C(=O)N[C@@H](CC(N)=O)C(=O)N[C@@H](CO)C(=O)N[C@@H](Cc2ccccc2)C(=O)N[C@@H](CCCNC(=N)N)C(=O)N[C@@H](Cc2ccc(O)cc2)C(=O)O)NC(=O)CNC(=O)[C@H](CC(C)C)NC(=O)CNC(=O)[C@H](CO)NC(=O)[C@H](CCC(N)=O)NC(=O)[C@H](C)NC(=O)CNC1=O` [Chimeric ANP (C)] (H-RPQLKAPPKKSEKRQQVCFGGRMDRIGAQSGLGCNSFRY-OH; disulfide 18-34; N-terminus and C-terminus assumed), for which, in data set [2] (iv), the AUC(0-inf) was 148 ng·h/mL, the C0 was 1530 ± 442 ng/mL, the half-life turned out to be 27.2 ± 3.8 min and the “concentration in plasma as compared with the native ANP” value is given as “rising concentration in plasma”. In data set [2] (sc), the AUC(0-inf) was 56.7 ng·h/mL, the peak level (Cmax) was 55.1 ± 10.3 ng/mL, the Tmax was 20 min and the half-life stood at 37.8 ± 7.8 min. The “concentration in plasma as compared with the native ANP” value in data set [2] (sc) is recorded as “rising concentration in plasma”.
On to `CC[C@H](C)[C@@H]1NC(=O)[C@H](CCCNC(=N)N)NC(=O)[C@H](CC(=O)O)NC(=O)[C@H](CCSC)NC(=O)[C@H](CCCNC(=N)N)NC(=O)CNC(=O)CNC(=O)[C@H](Cc2ccccc2)NC(=O)[C@@H](NC(=O)[C@H](CCCNC(=N)N)NC(=O)[C@@H]2CCCN2C(=O)[C@H](CCC(N)=O)NC(=O)[C@H](CC(C)C)NC(=O)[C@H](CCCCN)NC(=O)[C@H](C)NC(=O)[C@@H]2CCCN2C(=O)[C@@H]2CCCN2C(=O)[C@H](CCCCN)NC(=O)[C@H](CCCCN)NC(=O)[C@H](CO)NC(=O)[C@H](CCC(=O)O)NC(=O)[C@H](CCCCN)NC(=O)[C@H](CCCNC(=N)N)NC(=O)[C@H](CCC(N)=O)NC(=O)[C@H](CCC(N)=O)NC(=O)[C@@H](N)C(C)C)CSSC[C@@H](C(=O)N[C@@H](CC(N)=O)C(=O)N[C@@H](CO)C(=O)N[C@@H](Cc2ccccc2)C(=O)N[C@@H](CCCNC(=N)N)C(=O)N[C@@H](Cc2ccc(O)cc2)C(=O)O)NC(=O)CNC(=O)[C@H](CC(C)C)NC(=O)CNC(=O)[C@H](CO)NC(=O)[C@H](CCC(N)=O)NC(=O)[C@H](C)NC(=O)CNC1=O` [Chimeric ANP (B)] (H-VQQRKESKKPPAKLQPRCFGGRMDRIGAQSGLGCNSFRY-OH; disulfide 18-34; N-terminus and C-terminus assumed), for which, in data set [2] (iv), the AUC(0-inf) was 175 ng·h/mL, the C0 is 1570 ± 361 ng/mL, the half-life was found to be 40 ± 12.4 min and the “concentration in plasma as compared with the native ANP” value was “rising concentration in plasma”. In data set [2] (sc), the AUC(0-inf) was 66.4 ng·h/mL, the Cmax came out at 64.5 ± 40.7 ng/mL, the Tmax is 16.7 min and the half-life amounted to 57.3 ± 7.1 min. In addition, the “concentration in plasma as compared with the native ANP” value in data set [2] (sc) is given as “rising concentration in plasma”.
Regarding `CC[C@H](C)[C@@H]1NC(=O)[C@H](CCCNC(=N)N)NC(=O)[C@H](CC(=O)O)NC(=O)[C@H](CCSC)NC(=O)[C@H](CCCNC(=N)N)NC(=O)CNC(=O)CNC(=O)[C@H](Cc2ccccc2)NC(=O)[C@@H](NC(=O)[C@H](CO)NC(=O)[C@H](CO)NC(=O)[C@H](CCCNC(=N)N)NC(=O)[C@H](CCCNC(=N)N)NC(=O)[C@H](CC(C)C)NC(=O)[C@@H](N)CO)CSSC[C@@H](C(=O)N[C@@H](CC(N)=O)C(=O)N[C@@H](CO)C(=O)N[C@@H](Cc2ccccc2)C(=O)N[C@@H](CCCNC(=N)N)C(=O)N[C@@H](Cc2ccc(O)cc2)C(=O)O)NC(=O)CNC(=O)[C@H](CC(C)C)NC(=O)CNC(=O)[C@H](CO)NC(=O)[C@H](CCC(N)=O)NC(=O)[C@H](C)NC(=O)CNC1=O` [Native ANP, reference compound], in data set [2] (iv), the AUC(0-inf) is 25 ng·h/mL and the C0 stood at 993 ± 208 ng/mL. In data set [2] (sc), the AUC(0-inf) is 8.92 ng·h/mL, the Cmax was 22.3 ± 5.3 ng/mL and the Tmax is 8.3 min.

For the origin of these results see US8551937B2, “Peptide having an extending action for half-life of object peptide in plasma” (priority 2008, dated 2013).
